In patent US20230372337A1, “Combination Therapy Comprising an AXL Inhibitor” (BERGENBIO ASA, priority 2020, published 2023):

How the values were obtained:
[1] = test system: type I IFN related genes (ISG); experiment: RT2 Profiler PCR Array Mouse Type I Interferon Response on 4T1 tumors (Example 2); format: in vivo, Balb/c mice
Excerpt: Bemcentinib was given as a loading dose for 3 days (11-13 after tumor implantation) and then as a standard dose until sacrifice.
9 mice have been excluded of the study because of the absence of tumor on day 11. On day 11 post implantation half of the cages were placed in the bemcentinib treated group and the other half in the […]. The average tumor volume when bemcentinib treatment was initiated (day 11) was 54.99 mm^3. […] The tumor volumes when bemcentinib treatment was initiated and the day of randomization are recorded in table 8. The intra tumomoral injection of doxorubicin and sting agonists was adjusted to the tumor volume.
Doxorubicin is provided in a 2 mg/ml solution. As it is technically challenging to inject 50 ul liquid into tumors measuring <100 mm^3, the total dosing volume was calculated based on the following formula: V=50 ul×(TV/120). This is done to minimize variability due to leakage during intratumoral injection. For the 1 mg/kg dose (E,F) Doxorubicin was given at a concentration of 0.5 mg/ml, which corresponds to 1 mg/kg for a 25 g mouse with a tumor of 120 mm^3, and 1 mg/kg for a 20 g mouse with a tumor of 100 mm^3. For 3 mg/kg dose (G,H), a solution of 1.5 mg/ml was used and same volumes was injected. For the 6 mg/kg dose (I,J) the commercial solution of 2 mg/ml will be used and 75 ul was injected for tumor with a volume of 120 mm^3.
The same formula as for doxorubicin was used V=50 ul×(TV/120).
(§1) RNA was extracted from […] snap frozen tumors using the RNEasy Microarray Tissue Mini kit from Qiagen following the manufacturer's instructions. As tumors contained Doxorubicin and powderizing them could expose personnel to harmful substances, the RNA was extracted in a closed system using the GentleMACS dissociator and M Tubes. Purity and concentration of RNA was measured using Nanodrop. cDNA was synthesized from RNA using the RT^2 First Strand kit (Qiagen) according to the manufacturer's instructions. cDNA was mixed with RT^2 SYBR Green Mastermix (Qiagen) and loaded into RT Profiler™ PCR Array Mouse Type I Interferon Response or RT^2 Profiler™ PCR Array Mouse Epithelial to Mesenchymal Transition (EMT), analyzing the expression of 84 genes listed in Tables 9 and 10. The plates were analyzed using Light Cycler 480 (Roche) and data were analyzed using the Qiagen Data Analysis Centre and Graph Pad (Prism).
(§2) Quiagen RT^2 software was used to analyze all the samples from different groups. To be able to generate heatmaps and graph on fold change including error bars, the data have been analyzed manually with Graph Pad (Prism) when the Quiagen RT^2 software gave significant results between the different groups. For IFN type 1 response 1 mg/kg 48, 72 h and 3 mg/kg 48 h, were analyzed manually. For EMT, 1 mg/kg 48, 72 h, 3 mg/kg 72 h. When the data have been analyzed manually, the results are presented as histograms of mRNA fold changes. For the time points and doses analyzed by the software, the results are presented as tables.
GraphPadPrism was used to generate the heat maps, graphs with mRNA fold change, and to make the statistics. Multiple TTests, paired were performed on ΔΔ Ct values.
The expression of type I IFN related genes (ISG) was assessed in tumors collected 24, 48 and 72 hours after i.t. doxorubicin treatment. 3 groups were compared per timepoint: bemcentinib (bern), doxorubicin only (dox) and doxorubicin combined with bemcentinib (doxbern), the fold changes were compared with the control groups injected with PBS, and the fold change was 1 for the control groups.

[2] = test system: global gene expression; experiment: RNA sequencing of 4T1 tumors 72 hours after doxorubicin i.t. (Example 2); format: in vivo, Balb/c mice
Method: FASTQ files were generated and quality controlled by the Genomic Core Facility. The trimmed samples were aligned to the reference genome using STAR. Gene expression quantification was achieved using feature Counts. Following QC, 8 and 7 samples from in vitro and in vivo studies respectively were identified as outliers and were excluded from subsequent analysis. RUVseq was used to remove hidden batch effect and/or other unwanted variations.
Read counts were analyzed for differential expression using the R package DESeq2. DESeq2 uses the raw read counts, applies an internal normalization method, and does estimation of library size, estimation of dispersion, and negative binomial generalized linear model fitting. The resulting differentially expressed gene lists (adjusted p-value cutoff=0.05) were then analyzed using Metascape to find the enriched terms.
RNA sequence analysis (RNAseq) was performed on tumor samples from mice sacrificed 72 hours after doxorubicin i.t. treatment (corresponding to group E and F at the 72 hr timepoint in Example 1).

[3] = test system: 4T1 mammary carcinoma cells; experiment: 4T1 syngeneic mammary carcinoma model, tumor growth and survival (Example 1); settings: 4T1 model; for Effect on mouse survival: without the CPI treatment, 500 mm^3
Excerpt: Exponentially growing 4T1 mammary carcinoma cells were harvested and re-suspended at 4×10^6 per ml in the mixture of serum-free RPMI medium and Matrigel (1:1). Only cells with over 95% viability have been used for in vivo study.
Each animal was weighed before cell implantation. Mice were anesthetized by inhalation of Sevoflurane. Anesthesia was induced at 8% Sevoflurane and maintained at 4%. Every mouse was placed on a heating pad and appropriately marked. Under a suitable depth of unconsciousness, animals were shaved, and the skin and surrounding region washed with Chlorhexidine (1 mg/ml) with use of sterile gauze. Injection was done orthotopically with one tumor per mouse with 0.05 ml of approximately 2×10^5 4T1 cells in serum-free RPMI medium/Matrigel (1:1).
2 randomizations were performed on 150 mice in 30 cages, with 5 animals per cage. The first randomization was performed on day 11 post implantation. The average of tumor volume of animals in each cage was determined. The average tumor volume in the cages was from 3.8 mm^3 to 19.7 mm^3. […] The first randomization was conducted with Latin square method based on the average tumor volume of all animals in each cage. […] Once the average tumor size reached 70 mm^3 for vehicle treated animals and 76 mm^3 for bemcentinib treated animals (tumor volume=L×W×W/2) the second randomization was performed prior to injection of chemotherapeutic agent (doxorubicin) on day 16. Randomization 2 was conducted with Latin square method based on average tumor volume of all animals in the bemcentinib group and in the vehicle group from randomization 1. […]
Tumor growth was measured with a digital hand held caliper at least twice weekly (once tumor emerges), prior to the first dosing, and then on the day of euthanasia.
When tumors reached an average of 7-170 mm^3, each animal received Doxorubicin (Dox) at a concentration of 0.5 mg/ml (groups C,D,F and H) in a total volume of 50 ul×TV/120 as indicated in Table 1. […] Total drug dose was calculated based on each animal's individual tumor size. […]

[4] = test system: Yumm1.7 cells; experiment: qRTPCR of IFN related genes in Yumm1.7 cells in vitro (Example 4); format: cell-based, mouse
[5] = test system: Yumm 1.7 cells; experiment: Metastasis, tumor weight and spleen weight, Yumm1.7 model (Example 3); format: in vivo, C57Bl6 mice; settings: average on the day of sacrifice
Method: Spleens were weighed and prepared for Cytof (cut into pieces of 2 mm and frozen in FBS 90%, DMSO 10% and stored at −80° C. prior to dissociation).
Tumors were weighed and cut in 3 along the long axis, one third was snap frozen in liquid nitrogen in 2 cryotubes per tumor, another third was prepared for Cytof (Cut into pieces of 2 mm and frozen in FBS 90%, DMSO 10% and stored at −80C prior to dissociation). The last piece was fixed in 4% formalin for 24 hours at room temperature and stored in 70% ethanol at 4° C. until embedding in paraffin.

[6] = test system: EMT related genes; experiment: RT2 Profiler PCR Array Mouse Epithelial to Mesenchymal Transition (EMT) on 4T1 tumors (Example 2); format: in vivo, Balb/c mice; settings: for Downregulated EMT genes (number): doxorubicin 1 mg/kg i.t., 72 hr timepoint; for EMT related genes significantly downregulated (number): doxorubicin 3 mg/kg i.t., 72 hours
Method: as §1, §2
EMT related gene expression in tumors was assessed by the RT^2 Profiler™ PCR Array for the 1 and 3 mg/kg doses at 48 and 72 hr timepoints. The highest dose and 24 hr timepoint samples were excluded based on the results outlined above.

[7] = 24 hours after DMXAA i.t. treatment
[8] = doxorubicin 1 mg/kg i.t., 24 hours after injection, 84 genes
[9] = Yumm1.7 cells, doxorubicin 24 hours

Structure (SMILES) | ISG significantly upregulated compared to control (number) [1, 8] | ISG significantly upregulated compared to control (number) ([1]; doxorubicin 1 mg/kg i.t., 48 h) | ISG significantly upregulated compared to control (number) ([1]; doxorubicin 3 mg/kg i.t., 48 h) | GO terms significantly upregulated compared to control (number) [2] | Interferon response (gene ontology) compared to control [2] | Effect on mouse survival [3] | Spleen weight [5] | Downregulated EMT genes (number) [6] | EMT related genes significantly downregulated (number) [6] | also measured
Nc1nc(Nc2ccc3c(c2)CC[C@@H](N2CCCC2)CC3)nn1-c1cc2c(nn1)-c1ccccc1CCC2 [Bemcentinib, bemcentinib] | no ISG | none | No | 2 | downregulated | do not show any effect | 0.10 g | one | none | Fold change of upregulated ISG [1, 7]: around 2 fold; ISG significantly upregulated compared to control (number) [1, 7]: 3; GO terms significantly downregulated compared to control (number) [2]: 20; Median survival (tumor volume 1000 mm^3) ([3]; days until tumor 1000 mm^3 or sacrifice due to severe symptoms): 34.5 days; Effect on the IFNB mediated response ([4]; Yumm1.7 cells treated with IFNB): appeared to increase the IFNB mediated response, although not reaching significance
COc1cccc2c1C(=O)c1c(O)c3c(c(O)c1C2=O)C[C@@](O)(C(=O)CO)C[C@@H]3O[C@H]1C[C@H](N)[C@H](O)[C@H](C)O1 [Doxorubicin, doxorubicin] | no ISG | one | No | 1 | No Interferon response | do not show any effect | 0.17 g | one | none | Fold change of one upregulated ISG ([1]; doxorubicin 1 mg/kg i.t., 48 h): 3 fold; ISG significantly upregulated compared to control (number) ([1]; doxorubicin 3 mg/kg i.t., 24 h): one; ISG significantly upregulated compared to control (number) ([1]; doxorubicin 6 mg/kg i.t., 24 hours): 1; ISG significantly upregulated compared to control (number) ([1]; doxorubicin 6 mg/kg i.t., 48 hours): 8; ISG significantly upregulated compared to control (number) ([1]; doxorubicin 6 mg/kg i.t., 72 hours): 6; Interferon and immune response (gene ontology) compared to bern only group [2]: upregulated; IFIT1 mRNA fold change [4, 9]: 20 fold; OAS2 mRNA fold change [4, 9]: 50 fold; RSAD2 mRNA fold change [4, 9]: 20 fold; ISG significantly upregulated compared to control (number) ([4]; Yumm1.7 cells, doxorubicin 24 hours, 21 ISG tested): 9
